Test results reported in DBAASP.
Values after ≈ are worked out from the molar mass of the structure shown. Values joined by “and” are separate entries in the source; they are usually repeats but may differ in a detail not shown here. Equal entries are not always repeated. Each block holds one compound with its values, some of them ahead of it.

How the values were obtained:
Test in all cases: ≥ marks a high value that may be exact or a test limit, other limits are often not marked, values filed in µg/mL are converted to µM
[1] = test system: Bacillus subtilis ATCC 6633
[2] = test system: Escherichia coli ATCC 10536
Aspergillus fumigatus = test system: Aspergillus fumigatus
[3] = test system: Klebsiella pneumoniae ATCC 27736
Staphylococcus aureus MR = test system: Staphylococcus aureus MR
Candida albicans = test system: Candida albicans
[4] = test system: Trichophyton mentagrophytes
Cryptococcus neoformans = test system: Cryptococcus neoformans
Sporothrix schenckii = test system: Sporothrix schenckii
[5] = test system: Staphylococcus aureus ATCC 9144
[6] = test system: Pseudomonas aeruginosa ATCC BAA-427
[7] = test system: Candida parapsilosis ATCC 22019
[8] = test system: Staphylococcus epidermidis NRRL B-4268
[9] = test system: Leishmania major MHOM/IL/67/JERICHO-II
Escherichia coli HB101 = test system: Escherichia coli HB101
[10] = test system: Staphylococcus aureus Cowan 1
Candida albicans SC5314 = test system: Candida albicans SC5314
[11] = test system: Candida albicans CCARM 14020
[12] = test system: Candida albicans CCARM 14022
[13] = test system: Candida albicans CCARM 14021
[14] = test system: Trichosporon beigelii KCTC 7707
[15] = test system: Pseudomonas aeruginosa KCTC 1637
[16] = test system: Salmonella typhimurium KCTC 1926
[17] = test system: Staphylococcus epidermidis KCTC 3096
[18] = test system: Bacillus subtilis KCTC 1918
[19] = test system: Candida albicans TIMM 1768
[20] = test system: Streptococcus sanguinis ATCC 10556
[21] = test system: Limosilactobacillus fermentum ATCC 9338
[22] = test system: Streptococcus mutans UA159
[23] = test system: Lactobacillus acidophilus ATCC 53544
[24] = test system: Lacticaseibacillus casei ATCC 393
[25] = test system: Streptococcus sobrinus 6715
[26] = test system: Actinomyces naeslundii ATCC 12104
[27] = test system: Streptococcus salivarius ATCC 27945
[28] = test system: Enterococcus faecalis ATCC 29212
[29] = test system: Streptococcus gordonii DL1
[30] = test system: Streptococcus gordonii ATCC 35105
[31] = test system: Staphylococcus aureus ATCC 6538
[32] = test system: Lactobacillus acidophilus ATCC 14931
[33] = test system: Limosilactobacillus fermentum A1753
[34] = test system: Streptococcus sanguinis JCM 5708
[35] = test system: Streptococcus salivarius ATCC 13419
[36] = test system: Streptococcus sobrinus ATCC 6715
[37] = test system: Pectobacterium carotovorum

Compound: CC(C)C[C@H](NC(=O)[C@H](C)NC(=O)[C@H](CCCN=C(N)N)NC(=O)[C@H](CCCN=C(N)N)NC(=O)[C@H](C)NC(=O)[C@H](Cc1c[nH]c2ccccc12)NC(=O)[C@H](CCCCN)NC(=O)[C@H](CCCN=C(N)N)NC(=O)[C@H](C)NC(=O)[C@H](CCCN=C(N)N)NC(=O)[C@H](CCCN=C(N)N)NC(=O)[C@H](C)N)C(=O)N[C@@H](CCCCN)C(=O)N[C@@H](CC(C)C)C(=O)N[C@@H](C)C(N)=O [ARRARKWARRALKLA]
MIC [1]: 20 µM (≈ 36.4 µg/mL) | MIC [2]: 4.5 µM (≈ 8.2 µg/mL) | MIC (Aspergillus fumigatus): 25 µM (≈ 45.6 µg/mL) | MIC [3]: 25 µM (≈ 45.6 µg/mL) | MIC (Staphylococcus aureus MR): 25 µM (≈ 45.6 µg/mL) | MIC (Candida albicans): > 25 µM | MIC [4]: 25 µM (≈ 45.6 µg/mL) | MIC (Cryptococcus neoformans): 25 µM (≈ 45.6 µg/mL) | MIC (Sporothrix schenckii): 25 µM (≈ 45.6 µg/mL) | MIC [5]: 6.25 µM (≈ 11.4 µg/mL) | MIC [6]: 6.25 µM (≈ 11.4 µg/mL) | MIC [7]: 25 µM (≈ 45.6 µg/mL) | MIC [8]: 8 µM (≈ 14.6 µg/mL)

Compound: CC[C@H](C)[C@H](NC(=O)CNC(=O)[C@@H](NC(=O)[C@H](CCCCN)NC(=O)[C@H](CCCCN)NC(=O)[C@H](Cc1ccccc1)NC(=O)[C@H](CC(C)C)NC(=O)[C@H](CCCCN)NC(=O)[C@H](Cc1c[nH]c2ccccc12)NC(=O)[C@@H](N)CCCCN)[C@@H](C)CC)C(=O)NCC(=O)N[C@@H](CCCCN)C(=O)N[C@@H](Cc1ccccc1)C(=O)N[C@@H](CC(C)C)C(=O)N[C@@H](CCCCN)C(=O)N[C@@H](CCCCN)C(=O)N[C@@H](CCCCN)C(N)=O [KWKLFKKIGIGKFLKKK]
MIC [14]: 6.25 µM (≈ 13.1 µg/mL) | MIC [15]: 2.21 µM (≈ 4.61 µg/mL) | MIC [16]: 0.19 µM (≈ 0.397 µg/mL) | MIC [17]: 3.12 µM (≈ 6.52 µg/mL) | MIC [18]: 3.12 µM (≈ 6.52 µg/mL) | MIC [19]: 12.5 µM (≈ 26.1 µg/mL)

Compound: CC(C)C[C@H](NC(=O)[C@H](CC(N)=O)NC(=O)[C@H](Cc1ccc(O)cc1)NC(=O)[C@@H]1CCCN1C(=O)[C@@H]1CCCN1)C(=O)N[C@@H](CC(N)=O)C(=O)N[C@@H](CO)C(=O)N[C@@H](Cc1cnc[nH]1)C(=O)N[C@H](C(=O)N[C@@H](CCC(N)=O)C(=O)N[C@@H](CCC(=O)O)C(=O)N[C@@H](Cc1ccc(O)cc1)C(=O)N[C@@H](CO)C(=O)N[C@@H](CCCCN)C(=O)N1CCC[C@H]1C(=O)N[C@@H](CCC(=O)O)C(=O)N[C@@H](CC(=O)O)C(=O)N[C@H](C(=O)N[C@@H](Cc1ccccc1)C(=O)N[C@@H](CC(=O)O)C(=O)O)[C@@H](C)O)[C@@H](C)O [PPYNLNSHTQEYSKPEDTFD]
MIC [37]: 4.47 µM (≈ 10.7 µg/mL)

Other lines, results leading:

MIC [9]: ≥ 48.8 µM | MIC (Escherichia coli HB101): ≥ 48.8 µM | MIC [10]: ≥ 48.8 µM
Compound: CSCC[C@H](NC(=O)[C@@H](NC(=O)CNC(=O)[C@H](CC(C)C)NC(=O)[C@H](CCCCN)NC(=O)[C@H](CCCCN)NC(=O)[C@H](CC(C)C)NC(=O)[C@H](CCSC)NC(=O)[C@@H](NC(=O)[C@H](CCCCN)NC(=O)[C@H](Cc1c[nH]c2ccccc12)NC(=O)[C@H](CC(C)C)NC(=O)[C@H](C)N)[C@@H](C)O)[C@@H](C)O)C(=O)N[C@@H](C)C(N)=O [ALWKTMLKKLGTMA]

MIC (Candida albicans SC5314): 15 µM (≈ 22.6 µg/mL) | MIC [11]: 7.51 µM (≈ 11.3 µg/mL) | MIC [12]: 21.2 µM (≈ 32 µg/mL) | MIC [13]: 21.2 µM (≈ 32 µg/mL)
Compound: CC(C)C[C@H](NC(=O)[C@H](C)N)C(=O)N[C@@H](CC(C)C)C(=O)N[C@@H](Cc1cnc[nH]1)C(=O)N[C@@H](Cc1cnc[nH]1)C(=O)NCC(=O)N[C@@H](Cc1ccc(O)cc1)C(=O)N[C@@H](CCCCN)C(=O)N[C@@H](CCCN=C(N)N)C(=O)N[C@@H](CCCCN)C(=O)N[C@@H](Cc1ccccc1)C(=O)N[C@@H](Cc1cnc[nH]1)C(N)=O [ALLHHGYKRKFH]

MIC [20]: 5.37 µM (≈ 7.99 µg/mL) | MIC [21]: 2.69 µM (≈ 4 µg/mL) | MIC [22]: 4.5 µM and 4.48 µM and 6.27 µM | MIC [23]: 3.14 µM and 4.92 µM | MIC [24]: 2.69 µM and 3.14 µM and 6.27 µM | MIC [25]: 10.7 µM and 4.03 µM and 8.06 µM | MIC [26]: 2.69 µM (≈ 4 µg/mL) | MIC [27]: 2.47 µM and 4.92 µM | MIC [28]: 25.1 µM and 50.2 µM | MIC [29]: 5.37 µM (≈ 7.99 µg/mL) | MIC [30]: 10.7 µM and 21.5 µM | MIC [31]: 7.17 µM and 14.3 µM | MIC [32]: 2.69 µM (≈ 4 µg/mL) | MIC [33]: 2.02 µM and 3.14 µM | MIC [34]: 5.37 µM and 10.7 µM | MIC [35]: 5.37 µM (≈ 7.99 µg/mL)
Compound: CC(C)C[C@H](NC(=O)CN)C(=O)N[C@@H](CC(C)C)C(=O)N[C@@H](Cc1c[nH]c2ccccc12)C(=O)N[C@@H](Cc1cnc[nH]1)C(=O)N[C@@H](CC(C)C)C(=O)N[C@@H](CC(C)C)C(=O)N[C@@H](Cc1cnc[nH]1)C(=O)N[C@@H](Cc1cnc[nH]1)C(=O)N[C@@H](CC(C)C)C(=O)N[C@@H](CC(C)C)C(=O)N[C@@H](Cc1cnc[nH]1)C(N)=O [GLLWHLLHHLLH]

MIC [20]: 18.8 µM (≈ 32 µg/mL) | MIC [22]: 18.8 µM (≈ 32 µg/mL) | MIC [36]: 18.8 µM (≈ 32 µg/mL)
Compound: CC(C)[C@H](NC(=O)[C@H](CCCCN)NC(=O)[C@H](Cc1ccccc1)NC(=O)[C@H](Cc1ccccc1)NC(=O)[C@H](CCCCN)NC(=O)[C@H](CCCCN)NC(=O)[C@H](Cc1ccccc1)NC(=O)[C@H](Cc1ccccc1)NC(=O)[C@H](CCCCN)NC(=O)CNC(=O)[C@H](Cc1c[nH]c2ccccc12)NC(=O)CN)C(=O)NCC(=O)N[C@@H](CCCCN)C(=O)O [GWGKFFKKFFKVGK]
